Source: patent US6083941A, “Inhibition of NMDA receptor activity by pregnenolone sulfate derivatives” (Trustees of Boston University, priority 1998, dated 2000)
“Also recorded” adds a separate entry of the source. Where a name gives a salt, the structure may show the parent alone. Read-outs that look alike come from different tables or passages of the source.

What was measured:
[1] = test system: glutamate receptor-mediated spontaneous EPSCs in rat hippocampal neurons; assay: Spontaneous excitatory postsynaptic currents (EPSCs), whole-cell recording in cultured hippocampal neurons; format: cell-based; settings: for effect on spontaneous EPSCs: cultures of rat hippocampal neurons; for EC50: voltage-clamped at -70 mV, read-out: EC50 of EPSC potentiation
Protocol: Primary cultures of hippocampal neurons were prepared from embryonic day 18 rats. Cultured neurons were used in experiments 2-3 weeks after plating.
Spontaneous excitatory postsynaptic currents were recorded by the whole-cell variant of the patch clamp technique. The pipet solution usually contained (in mM) KCl 10, EGTA 11, sodium gluconate 3, potassium gluconate 140 and HEPES 10, adjusted to pH 7.2 with KOH. The bath solution contained (in mM) NaCl 150, KCl 4, CaCl2 1, and HEPES 10, adjusted to pH 7.2 with NaOH. Because NMDA-induced currents are subject to voltage-dependent block by extracellular Mg^2+, no magnesium salts were added to the bath solution. All records were made with the cell membrane potential clamped at -70 mV, which is very close to the Cl- equilibrium potential. Therefore, IPSCs are not expected to be observed and spontaneous activity should consist of EPSCs. The complete blockage of spontaneous activity by the co-application of the NMDA receptor antagonist APV and the non-NMDA receptor antagonist DNQX argues that the observed spontaneous activity is glutamate receptor-mediated.
Drug solutions were applied to single neurons by pressure ejection (15 psi) from 7-barrel pipets (tip opening ~3-5 μm) positioned ~50 μm from the neuronal soma. In all experiments, neurons received a 40s application of either steroid or steroid plus antagonist(s), followed by 10-20s pulse of external buffer solution.

[2] = biological target: T1, recombinant NMDA receptors (NR1100 and NR2A subunits) (Rattus norvegicus, UniProt P35439+Q00959); assay: Two electrode voltage-clamp of Xenopus oocytes expressing recombinant NMDA receptors; format: cell-based
T1 construct: expressed in transfected cells; host or cells: Xenopus laevis oocytes injected with in vitro transcribed mRNA
T1 sequence (Q00959 23-1464, other chains not shown): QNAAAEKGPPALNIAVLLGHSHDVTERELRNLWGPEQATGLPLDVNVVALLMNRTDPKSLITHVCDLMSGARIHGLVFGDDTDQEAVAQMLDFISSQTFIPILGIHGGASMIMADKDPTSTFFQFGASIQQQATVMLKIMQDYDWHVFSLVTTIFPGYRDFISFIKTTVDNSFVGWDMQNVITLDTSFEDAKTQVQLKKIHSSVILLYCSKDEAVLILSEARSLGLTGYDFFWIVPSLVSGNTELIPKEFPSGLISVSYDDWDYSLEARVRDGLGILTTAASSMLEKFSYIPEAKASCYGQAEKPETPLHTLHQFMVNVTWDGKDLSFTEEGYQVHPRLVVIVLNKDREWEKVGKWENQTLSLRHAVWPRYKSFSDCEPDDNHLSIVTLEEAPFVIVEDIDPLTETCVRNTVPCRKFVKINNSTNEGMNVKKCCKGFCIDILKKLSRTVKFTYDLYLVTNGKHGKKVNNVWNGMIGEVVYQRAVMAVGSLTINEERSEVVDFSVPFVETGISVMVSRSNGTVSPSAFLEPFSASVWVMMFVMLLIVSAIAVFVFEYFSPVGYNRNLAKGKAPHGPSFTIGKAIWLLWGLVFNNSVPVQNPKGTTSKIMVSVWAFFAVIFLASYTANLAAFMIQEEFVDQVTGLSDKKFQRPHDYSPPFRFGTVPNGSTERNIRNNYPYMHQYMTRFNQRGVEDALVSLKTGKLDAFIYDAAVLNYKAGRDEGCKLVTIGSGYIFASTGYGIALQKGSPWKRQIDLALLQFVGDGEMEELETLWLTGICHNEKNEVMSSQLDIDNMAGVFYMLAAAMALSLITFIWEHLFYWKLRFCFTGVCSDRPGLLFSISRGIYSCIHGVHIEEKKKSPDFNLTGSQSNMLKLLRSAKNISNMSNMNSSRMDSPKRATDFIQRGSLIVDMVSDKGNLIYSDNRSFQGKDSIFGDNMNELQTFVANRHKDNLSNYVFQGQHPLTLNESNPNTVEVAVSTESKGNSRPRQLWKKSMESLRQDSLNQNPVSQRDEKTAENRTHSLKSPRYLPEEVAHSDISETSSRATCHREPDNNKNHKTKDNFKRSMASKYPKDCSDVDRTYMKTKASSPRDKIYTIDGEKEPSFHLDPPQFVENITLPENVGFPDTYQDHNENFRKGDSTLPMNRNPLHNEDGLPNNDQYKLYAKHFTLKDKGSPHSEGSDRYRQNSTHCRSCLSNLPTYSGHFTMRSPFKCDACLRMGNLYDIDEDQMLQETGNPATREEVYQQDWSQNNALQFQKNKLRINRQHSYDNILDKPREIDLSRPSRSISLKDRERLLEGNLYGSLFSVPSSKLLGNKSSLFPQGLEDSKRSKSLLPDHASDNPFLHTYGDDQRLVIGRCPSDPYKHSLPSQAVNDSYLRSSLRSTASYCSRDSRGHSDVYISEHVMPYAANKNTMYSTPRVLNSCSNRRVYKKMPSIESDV
Protocol: RNA preparation. mRNA were prepared through in vitro transcription of NR1100 and NR2A cDNAs using the mMessage mMachine kit (Ambion, Tex.). NR1100 and NR2A clones were kindly provided by Dr. Zukin and Dr. Nakanishie.
Xenopus expression system. Female, oocyte positive Xenopus laevis frogs were purchased from Nasco, Inc. (WI). The frogs were kept on a 12/12 light-dark cycle and maintained on a diet of chopped calf liver every 3 days. Prior to surgery, frogs were anesthetized in a 0.15% Tricaine solution (Sigma, Mo.) for 30-45 minutes. Ovarian sections containing the follicular oocytes were removed through a lateral abdominal incision and were immediately placed in calcium-free ND96 solution (in mM):96 NaCl; 1 MgCl2; 2 KCl; 5 Hepes; 2.5 pyruvate (pH adjusted to 7.4 with NaOH). Following a 2 hr. incubation in 0.2% collagenase type II (Sigma, Mo.) at room temperature, individual defolliculated oocytes were transferred into 60×15 mm glass petri dishes containing ND96 solution (in mM): 96 NaCl; 1 MgCl2; 2 KCl; 1.8 CaCl2; 5 Hepes; 2.5 pyruvate (pH adjusted to 7.4 with NaOH). The isolated oocytes were maintained in an incubator at 18° C. On the following date, batches of 20-40 selected oocytes (Dumont stage V and VI) were injected with 50 nl of prepared RNA solution (0.5 ng of NR1 and 12 ng of NR2A mRNAs per oocyte) using an electronic microinjector (Drummond, Pa.). The injected oocytes were used for electrophysiological experiments following 4-10 day incubation at 18° C.
Electrical recording and drug application. The ion current recordings were obtained in two electrodes voltage-clamp mode using an Axoclamp-2A amplifier (Axon Instruments, Inc., CA). The microelectrodes were fabricated with a programmed puller (Sutter Instrument Co., CA) from glass capillaries (Dagan, Minn.) and filled with 3M KCl solution. The resistance of filled microelectrodes was in the range of 2.5-3.5 M.OMEGA.. The oocytes were clamped at a holding potential of -70 mV. The membrane current was filtered at 500 Hz and sampled at 100 Hz frequency. The drugs were applied using a gravity driven external perfusion system. The data acquisition and external perfusion control were done using SuperScopeII software package (GW Instruments, MA). All experiments were performed at room temperature of 22-24° C.
The degree of modulation of the amino acid response by steroids, the percent change, was defined at (I'/I-1)×100%, where I and I' are respectively the agonist-induced currents in the absence and presence of steroid. Throughout, results are expressed as mean±SEM; statistical comparison of groups was carried out using Student's t test.

[3] = test system: NMDA-induced convulsion and mortality in mice; assay: NMDA-induced convulsion test (200 mg/kg NMDA); format: in vivo
Protocol: Male CD-1 mice (Charles River Laboratories, Wilmington, Mass.) weighing 20-25 g were used for the NMDA-induced convulsion test. Mice were injected intraperitoneally with the test compound dissolved in DMSO or with vehicle. NMDA (200 mg/kg, i.p.) was injected either 2 minutes after intravenous injection of test compound or 20 minutes after intraperitoneal injection of test compound.

[4] = mice, i.p., high dose, time limit 30 min

| SMILES | effect on spontaneous EPSCs [1] | effect on NMDA responses of NR1100/NR2A injected oocytes [2] | seizures and mortality induced by NMDA ([3]; mice, i.v. administration, FIG. 8) | latency to onset of seizures ([3]; printed:) | mortality ([3]; printed: rats following i.v. injection of 200 mg/kg NMDA) | mortality induced by 200 mg/kg of NMDA ([3]; mice, i.p., FIG. 7) | tonic seizures induced by 200 mg/kg of NMDA ([3]; mice, i.p., FIG. 7) | mortality induced by NMDA at the high dose [3, 4] | tonic seizures induced by NMDA at the high dose [3, 4] | potentiation of EPSCs with NMDA receptors blocked ([1]; 100 μM steroid, APV (40 μM)) | EC50 ([1]; listed as pregnenolone sulfate) [µM] | EC50 [1] [µM] | activation at 100 µM ([2]; 100 μM steroid, read-out: potentiation of a near maximal NMDA response (200 μM)) [%] |
| --- | --- | --- | --- | --- | --- | --- | --- | --- | --- | --- | --- | --- | --- |
| CC(=O)[C@H]1CC[C@H]2[C@@H]3CC[C@@H]4C[C@H](OS(=O)(=O)O)CC[C@]4(C)[C@H]3CC[C@]12C [5β3αS, 3α-hydroxy-5β-pregnan-20-one sulfate] | inhibits spontaneous EPSCs | had an inhibitory effect | effective in blocking seizures and mortality | increases the latency to onset of seizures | decreases mortality | – | – | – | – | – | – | – | – |
| CC(=O)[C@H]1CC[C@H]2[C@@H]3CC[C@@H]4C[C@H](OC(=O)CCC(=O)O)CC[C@]4(C)[C@H]3CC[C@]12C [5β3αHS, 3α-hydroxy-5β-pregnan-20-one hemisuccinate] | – | – | – | – | – | dose-dependently inhibited mortality | dose-dependently inhibited tonic seizures | completely block the mortality | completely block the seizures | – | – | – | – |
| CC(=O)C1CCC2C3CC=C4CC(OS(=O)(=O)O)CCC4(C)C3CCC12C (centres unmarked) [PS, pregnenolone sulfate] | potentiates spontaneous EPSCs; also recorded: potentiates spontaneous excitatory post-synaptic currents | – | – | – | – | – | – | – | – | reduced | 11.9 | 5.6 | 292 ± 34 |
